Key:
[1] = Reactivity with OH radicals, pulse irradiation (Table 3); settings: KCNS 10^-4 M; pulse 50 nsec, dose 18 Gy; λ=500 nm
Source text: (§1) For testing the reactivity with oxygen radicals, solutions of the compounds under examination in very pure water were submitted to irradiation by an electron flow in accordance with the following procedure:
The irradiated solution for measurement of reactivity with OH radicals contained KCNS 10^-4 M and increasing concentrations of the compounds under examination. The concentrations were 10^-6 and 6×10^-6for the first five compounds of Table 1, 10^-5 and 10^-4, 10^-3 M for the other eight compounds.
The water used for the tests was neutral and made absolutely pure by deionization and four distillations also in the presence of oxidizing agents (KMnO4).
The irradiation conditions were: pulse 50 nsec, dose 18 Gy.
Absorption was performed at λ=500 nm.

L 929 cells [2] = experiment: Radiosensitization of cells in hypoxic condition under gamma radiation (Table 1); format: cell-based
Description: The biological and pharmacological activity of the compounds under examination was tested on cell cultures and under gamma radiations. […] These aqueous solutions were added to cell cultures containing from 50 to 60 L 929 cells per mm^2; nutrient solution RPM-1-1640 containing 3% calf serum. Contact between the cells and the compound under examination was continued for six hours under nitrogen and under air. Parts of the solutions during the contact with the drug were irradiated in gamma cell with 1000, 2000 and 3000 rad always using a control sample without the drug.

[3] = Reactivity with O2 radicals, pulsed electron beams (Table 3); settings: potassium formiate solution saturated with O2; 12 MeV pulsed electron beams
Source text: as §1
The O2 species was generated by irradiation of a […] solution of potassium formiate satured with O2 with 12 MeV pulsed electron beams.
The concentration of the O2 radical produced is depending from the irradiation dose (which is proportional to the length of the pulse) and was in any case in excess with respect to the concentration of the reacting substance.

L 929 cells [4] = experiment: Cytotoxicity on cell cultures (Table 2)
Description: The biological and pharmacological activity of the compounds under examination was tested on cell cultures and under gamma radiations. Concentrations of 10^-6, 5×10^-6, 10^-5 and 10^-3 M of each compound were used. These aqueous solutions were added to cell cultures containing from 50 to 60 L 929 cells per mm^2; nutrient solution RPM-1-1640 containing 3% calf serum. Contact between the cells and the compound under examination was continued for six hours under nitrogen and under air. Parts of the solutions during the contact with the drug were irradiated in gamma cell with 1000, 2000 and 3000 rad always using a control sample without the drug.

male mice = experiment: Acute toxicity test by oral and intravenous route on male mice (Table 4); format: in vivo; settings: 14 days
Description: (§2) The acute toxicity test was carried out by oral and intravenous route on male mice, weighing 19-21 g, which were deprived of meal for 16 hrs before treatment. Oral administration was performed by a gastric probe at doses of 500, 750, 1000 and 2000 mg/kg respectively, of the compounds under examination in aqueous solution of Tween (R). The intravenous administrations was performed in the caudal vein at doses of 100 and 200 mg/kg in 0.9% sodium chloride solution. The administered volumes were 1 ml/20 g by oral route and 0.5 ml/20 g by intravenous route.
(§3) After administration the mice were kept under control for 14 days.

[5] = as above; format: in vivo; settings: mouse, in vivo, male mice
Description: as §2, §3

[6] = culture time 0 hr, 5 × 10^-5 M, control 40
[7] = culture time 6 hr, 5 × 10^-5 M, control 62
[8] = culture time 12 hr, 5 × 10^-5 M, control 80
[9] = culture time 24 hr, 5 × 10^-5 M, control 166
[10] = culture time 0 hr, 0.5 × 10^-5 M, control 40
[11] = culture time 6 hr, 0.5 × 10^-5 M, control 62
[12] = culture time 12 hr, 0.5 × 10^-5 M, control 80
[13] = culture time 24 hr, 0.5 × 10^-5 M, control 166

Row | Structure (SMILES) | Reactivity with OH radicals measured as a speed constant (KOH·) [1] | Radiosensitization Index (R.S.I.) (L 929 cells [2]; concentration 1 × 10^-4 M) | Reactivity with O2 radicals measured as a speed constant (KO2-·) [3] | Cytotoxicity Index (number of cells) (L 929 cells [4]; [6]) | Cytotoxicity Index (number of cells) (L 929 cells [4]; [7]) | Cytotoxicity Index (number of cells) (L 929 cells [4]; [8]) | Cytotoxicity Index (number of cells) (L 929 cells [4]; [9]) | other results
1 | O=C(c1ccc([N+](=O)[O-])s1)N1CCOCC1 [Compound 9, 5-nitro-2-carboxythiophene-morpholinamide] | 3.1e+10 M⁻¹ s⁻¹ | 1.56 | 230000 M⁻¹ s⁻¹ | 64 number of cells | 60 number of cells | 80 number of cells | 138 number of cells | Death (dead/treated animals) (male mice; intravenous, 100 mg/kg): 0/5; Death (dead/treated animals) (male mice; intravenous, 200 mg/kg): 0/5; Death (dead/treated animals) (male mice; oral, 500 mg/kg): 0/5; Death (dead/treated animals) (male mice; oral, 750 mg/kg): 0/5; Death (dead/treated animals) (male mice; oral, 1000 mg/kg): 1/5; Death (dead/treated animals) (male mice; oral, 2000 mg/kg): 3/5; LD50 at 336 h ([5]; oral): 2000 mg/kg
2 | O=C(O)CCCNC(=O)c1ccc([N+](=O)[O-])s1 [Compound 8] |  | 1.30 |  | 47 number of cells | 50 number of cells | 80 number of cells | 152 number of cells | 
3 | NC(=O)c1ccc([N+](=O)[O-])s1 [Compound 5] | 2.3e+10 M⁻¹ s⁻¹ |  | 30000 M⁻¹ s⁻¹ | 40 number of cells | 32 number of cells | 50 number of cells | 80 number of cells | Radiosensitization Index (R.S.I.) (L 929 cells [2]; concentration 5 × 10^-5 M): 1.40
4 | O=[N+]([O-])c1csc([N+](=O)[O-])c1 [Compound 2] |  |  |  |  |  |  |  | Cytotoxicity Index (number of cells) (L 929 cells [4]; [10]): 46 number of cells; Cytotoxicity Index (number of cells) (L 929 cells [4]; [11]): 40 number of cells; Cytotoxicity Index (number of cells) (L 929 cells [4]; [12]): 68 number of cells; Cytotoxicity Index (number of cells) (L 929 cells [4]; [13]): 80 number of cells
5 | CN1CCN(C(=O)c2ccc([N+](=O)[O-])s2)CC1 [Compound 10, 5-nitro-2-carboxythiophene-N-methyl-piperazinamide] | 1e+10 M⁻¹ s⁻¹ | 1.58 | 33000 M⁻¹ s⁻¹ | 50 number of cells | 52 number of cells | 60 number of cells | 86 number of cells | 
6 | O=[N+]([O-])c1ccc(Oc2sccc2[N+](=O)[O-])cc1 [Compound 4] | 1.3e+10 M⁻¹ s⁻¹ |  | 20000 M⁻¹ s⁻¹ |  |  |  |  | Cytotoxicity Index (number of cells) (L 929 cells [4]; [10]): 56 number of cells; Cytotoxicity Index (number of cells) (L 929 cells [4]; [11]): 34 number of cells; Cytotoxicity Index (number of cells) (L 929 cells [4]; [12]): 48 number of cells; Cytotoxicity Index (number of cells) (L 929 cells [4]; [13]): 70 number of cells
7 | O=C(O)CCNC(=O)c1ccc([N+](=O)[O-])s1 [Compound 7] |  | 1.38 |  | 56 number of cells | 70 number of cells | 75 number of cells | 164 number of cells | 
8 | ON=Cc1ccc(Br)s1 [Compound 13, 5-bromo-2-thiophenaldoxime] | 8e+09 M⁻¹ s⁻¹ | 1.65 | 23000 M⁻¹ s⁻¹ | 43 number of cells | 50 number of cells | 70 number of cells | 130 number of cells | Death (dead/treated animals) (male mice; intravenous, 100 mg/kg): 0/5; Death (dead/treated animals) (male mice; intravenous, 200 mg/kg): 0/5; Death (dead/treated animals) (male mice; oral, 500 mg/kg): 0/5; Death (dead/treated animals) (male mice; oral, 750 mg/kg): 0/5; Death (dead/treated animals) (male mice; oral, 1000 mg/kg): 2/5; Death (dead/treated animals) (male mice; oral, 2000 mg/kg): 3/5; LD50 at 336 h ([5]; oral): 1800 mg/kg
9 | CS(=O)(=O)c1cc([N+](=O)[O-])c(I)s1 [Compound 3] |  |  |  |  |  |  |  | Cytotoxicity Index (number of cells) (L 929 cells [4]; [10]): 37 number of cells; Cytotoxicity Index (number of cells) (L 929 cells [4]; [11]): 30 number of cells; Cytotoxicity Index (number of cells) (L 929 cells [4]; [12]): 35 number of cells; Cytotoxicity Index (number of cells) (L 929 cells [4]; [13]): 50 number of cells
10 | O=C(O)C(C(=O)O)c1csc([N+](=O)[O-])c1 [Compound 12, 5-nitro-3-thiophenemalonic acid] | 7.2e+09 M⁻¹ s⁻¹ | 1.88 | 10000 M⁻¹ s⁻¹ | 50 number of cells | 60 number of cells | 74 number of cells | 136 number of cells | Death (dead/treated animals) (male mice; intravenous, 100 mg/kg): 0/5; Death (dead/treated animals) (male mice; intravenous, 200 mg/kg): 0/5; Death (dead/treated animals) (male mice; oral, 500 mg/kg): 0/5; Death (dead/treated animals) (male mice; oral, 750 mg/kg): 0/5; Death (dead/treated animals) (male mice; oral, 1000 mg/kg): 2/5; Death (dead/treated animals) (male mice; oral, 2000 mg/kg): 5/5; LD50 at 336 h ([5]; oral): 1200 mg/kg
11 | CC(=O)Nc1ccc([N+](=O)[O-])s1 [Compound 11, 5-nitro-2-(N-acetyl)-thienylamine] |  | 1.65 |  | 44 number of cells | 52 number of cells | 60 number of cells | 90 number of cells | 
12 | COCC(O)Cn1ccnc1[N+](=O)[O-] (stereo not shown) [Misonidazole, reference compound] |  |  |  |  |  |  |  | Radiosensitization Index (R.S.I.) (L 929 cells [2]; concentration 1 × 10^-3 M): 1.65
13 | O=C(O)c1ccc([N+](=O)[O-])s1 [Compound 6] | 7.5e+09 M⁻¹ s⁻¹ | 1.82 | 100000 M⁻¹ s⁻¹ | 50 number of cells | 60 number of cells | 70 number of cells | 110 number of cells | 
14 | O=[N+]([O-])c1cc([N+](=O)[O-])c(I)s1 [Compound 1] | 2.1e+10 M⁻¹ s⁻¹ |  | 3.5e+06 M⁻¹ s⁻¹ |  |  |  |  | Cytotoxicity Index (number of cells) (L 929 cells [4]; [10]): 36 number of cells; Cytotoxicity Index (number of cells) (L 929 cells [4]; [11]): 35 number of cells; Cytotoxicity Index (number of cells) (L 929 cells [4]; [12]): 42 number of cells; Cytotoxicity Index (number of cells) (L 929 cells [4]; [13]): 71 number of cells; Death (dead/treated animals) (male mice; intravenous, 100 mg/kg): 0/5; Death (dead/treated animals) (male mice; intravenous, 200 mg/kg): 0/5; Death (dead/treated animals) (male mice; oral, 500 mg/kg): 0/5; Death (dead/treated animals) (male mice; oral, 750 mg/kg): 2/5; Death (dead/treated animals) (male mice; oral, 1000 mg/kg): 5/5; LD50 at 336 h ([5]; intravenous): 200 mg/kg; LD50 at 336 h ([5]; oral): 760 mg/kg

Source: patent US4767758A, “Pharmaceutical compositions containing thiophene compounds, and new thiophene compounds” (Consiglio Nazionale Delle Ricerche, priority 1984, dated 1988)
